In PubChem BioAssay (NCI):
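Following 48 hours of exposure in 96-well plates, responses at five concentrations were used to interpolate endpoints linearly. Abbreviation: GI50, concentration required for 50% inhibition of growth. TGI is the concentration that stops growth completely.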

Key:
Assay in all cases: NCI-60 cell line screen, 48 h
786-0 renal = system: 786-0 renal
A498 renal = system: A498 renal
A549 NSCLC = system: A549 NSCLC
ACHN renal = system: ACHN renal
BT-549 breast = system: BT-549 breast
CAKI-1 renal = system: CAKI-1 renal
CCRF-CEM leukemia = system: CCRF-CEM leukemia
COLO 205 colon = system: COLO 205 colon
DU-145 prostate = system: DU-145 prostate
EKVX NSCLC = system: EKVX NSCLC
HCC-2998 colon = system: HCC-2998 colon
HCT-116 colon = system: HCT-116 colon
HCT-15 colon = system: HCT-15 colon
HL-60(TB) leukemia = system: HL-60(TB) leukemia
HOP-62 NSCLC = system: HOP-62 NSCLC
HOP-92 NSCLC = system: HOP-92 NSCLC
HS 578T breast = system: HS 578T breast
HT29 colon = system: HT29 colon
IGROV1 ovarian = system: IGROV1 ovarian
K-562 leukemia = system: K-562 leukemia
KM12 colon = system: KM12 colon
LOX IMVI melanoma = system: LOX IMVI melanoma
M14 melanoma = system: M14 melanoma
MALME-3M melanoma = system: MALME-3M melanoma
MCF7 breast = system: MCF7 breast
MDA-MB-231 breast = system: MDA-MB-231 breast
MDA-MB-435 = system: MDA-MB-435
MDA-MB-468 breast = system: MDA-MB-468 breast
MOLT-4 leukemia = system: MOLT-4 leukemia
NCI-H226 lung = system: NCI-H226 lung
NCI-H23 lung = system: NCI-H23 lung
NCI-H460 lung = system: NCI-H460 lung
NCI-H522 lung = system: NCI-H522 lung
NCI/ADR-RES ovarian = system: NCI/ADR-RES ovarian
OVCAR-3 ovarian = system: OVCAR-3 ovarian
OVCAR-4 ovarian = system: OVCAR-4 ovarian
OVCAR-5 ovarian = system: OVCAR-5 ovarian
OVCAR-8 ovarian = system: OVCAR-8 ovarian
PC-3 prostate = system: PC-3 prostate
RPMI-8226 leukemia = system: RPMI-8226 leukemia
RXF 393 renal = system: RXF 393 renal
SF-268 CNS = system: SF-268 CNS
SF-295 CNS = system: SF-295 CNS
SF-539 CNS = system: SF-539 CNS
SK-MEL-2 melanoma = system: SK-MEL-2 melanoma
SK-MEL-28 melanoma = system: SK-MEL-28 melanoma
SK-MEL-5 melanoma = system: SK-MEL-5 melanoma
SK-OV-3 ovarian = system: SK-OV-3 ovarian
SN12C renal = system: SN12C renal
SNB-19 CNS = system: SNB-19 CNS
SNB-75 CNS = system: SNB-75 CNS
SR leukemia = system: SR leukemia
SW-620 colon = system: SW-620 colon
T-47D breast = system: T-47D breast
TK-10 renal = system: TK-10 renal
U251 CNS = system: U251 CNS
UACC-257 melanoma = system: UACC-257 melanoma
UACC-62 melanoma = system: UACC-62 melanoma
UO-31 renal = system: UO-31 renal

## CCOc1ccccc1[C@H]1C(C(=O)c2ccc(Cl)cc2)C2(N[C@@H]1c1ccccc1)C(=O)Nc1ccccc12 (stereo partly drawn)
786-0 renal
  GI50: 8.94 µM
  TGI: > 39.8 µM
A498 renal
  GI50: 7.7 µM
  TGI: 20.7 µM
A549 NSCLC
  GI50: 10.4 µM
  TGI: > 39.8 µM
ACHN renal
  GI50: 10.1 µM
  TGI: > 39.8 µM
BT-549 breast
  GI50: 6.89 µM
  TGI: 22.8 µM
CAKI-1 renal
  GI50: 4.08 µM
  TGI: > 39.8 µM
CCRF-CEM leukemia
  GI50: 29.2 µM
  TGI: > 39.8 µM
COLO 205 colon
  GI50: 6.82 µM
  TGI: 14 µM
DU-145 prostate
  GI50: 13.1 µM
  TGI: > 39.8 µM
EKVX NSCLC
  GI50: 8.62 µM
  TGI: > 39.8 µM
HCC-2998 colon
  GI50: 7.9 µM
  TGI: 29.8 µM
HCT-116 colon
  GI50: 6.75 µM
  TGI: > 39.8 µM
HCT-15 colon
  GI50: 8.87 µM
  TGI: > 39.8 µM
HL-60(TB) leukemia
  GI50: 5.6 µM
  TGI: 32.4 µM
HOP-62 NSCLC
  GI50: 18.9 µM
  TGI: > 39.8 µM
HOP-92 NSCLC
  GI50: 6.65 µM
  TGI: 29.3 µM
HS 578T breast
  GI50: 6.08 µM
  TGI: 22.9 µM
HT29 colon
  GI50: 7.26 µM
  TGI: 36.1 µM
IGROV1 ovarian
  GI50: 8.69 µM
  TGI: > 39.8 µM
K-562 leukemia
  GI50: 9.06 µM
  TGI: > 39.8 µM
KM12 colon
  GI50: 11.3 µM
  TGI: > 39.8 µM
LOX IMVI melanoma
  GI50: 2.85 µM
  TGI: 10.3 µM
M14 melanoma
  GI50: 7.69 µM
  TGI: > 39.8 µM
MALME-3M melanoma
  GI50: 7.4 µM
  TGI: 18.6 µM
MCF7 breast
  GI50: 6.78 µM
  TGI: > 39.8 µM
MDA-MB-231 breast
  GI50: 5.37 µM
  TGI: 34.3 µM
MDA-MB-435
  GI50: 4.06 µM
  TGI: 16.3 µM
MDA-MB-468 breast
  GI50: 1.31 µM
  TGI: 8.19 µM
MOLT-4 leukemia
  GI50: 4.68 µM
  TGI: > 39.8 µM
NCI-H226 lung
  GI50: 5.44 µM
  TGI: 18.5 µM
NCI-H23 lung
  GI50: 7.78 µM
  TGI: > 39.8 µM
NCI-H460 lung
  GI50: 8 µM
  TGI: 21.5 µM
NCI-H522 lung
  GI50: 6.14 µM
  TGI: 22.8 µM
NCI/ADR-RES ovarian
  GI50: 5.64 µM
  TGI: 16.6 µM
OVCAR-3 ovarian
  GI50: 7.68 µM
  TGI: > 39.8 µM
OVCAR-4 ovarian
  GI50: 14.8 µM
  TGI: > 39.8 µM
OVCAR-5 ovarian
  GI50: 10.1 µM
  TGI: > 39.8 µM
OVCAR-8 ovarian
  GI50: 11.9 µM
  TGI: > 39.8 µM
PC-3 prostate
  GI50: 2.77 µM
  TGI: > 39.8 µM
RPMI-8226 leukemia
  GI50: 8.82 µM
  TGI: > 39.8 µM
RXF 393 renal
  GI50: 5.35 µM
  TGI: 19.2 µM
SF-268 CNS
  GI50: 12.2 µM
  TGI: > 39.8 µM
SF-295 CNS
  GI50: 7.88 µM
  TGI: > 39.8 µM
SF-539 CNS
  GI50: 23.3 µM
  TGI: > 39.8 µM
SK-MEL-2 melanoma
  GI50: 7.37 µM
  TGI: 17.5 µM
SK-MEL-28 melanoma
  GI50: 17.4 µM
  TGI: > 39.8 µM
SK-MEL-5 melanoma
  GI50: 6.1 µM
  TGI: 12.2 µM
SK-OV-3 ovarian
  GI50: 22.1 µM
  TGI: > 39.8 µM
SN12C renal
  GI50: 5.56 µM
  TGI: 11.9 µM
SNB-19 CNS
  GI50: 16.6 µM
  TGI: > 39.8 µM
SNB-75 CNS
  GI50: 6.24 µM
  TGI: > 39.8 µM
SR leukemia
  GI50: 9.21 µM
  TGI: > 39.8 µM
SW-620 colon
  GI50: 10.1 µM
  TGI: > 39.8 µM
T-47D breast
  GI50: 6.48 µM
  TGI: > 39.8 µM
TK-10 renal
  GI50: 15.6 µM
  TGI: > 39.8 µM
U251 CNS
  GI50: 13 µM
  TGI: > 39.8 µM
UACC-257 melanoma
  GI50: 8.91 µM
  TGI: > 39.8 µM
UACC-62 melanoma
  GI50: 4.65 µM
  TGI: 18.2 µM
UO-31 renal
  GI50: 5.82 µM
  TGI: > 39.8 µM
